Laboratory results from patent publication US20040235798A1, “Compositions and methods for inhibiting prenyltransferases” (priority 2001, published 2004).

Columns and labels:
[1] = biological target: T1, fungal N-myristoyltransferase (Candida albicans, UniProt P30418); details: cited from earlier work
T1 sequence (P30418 1-451): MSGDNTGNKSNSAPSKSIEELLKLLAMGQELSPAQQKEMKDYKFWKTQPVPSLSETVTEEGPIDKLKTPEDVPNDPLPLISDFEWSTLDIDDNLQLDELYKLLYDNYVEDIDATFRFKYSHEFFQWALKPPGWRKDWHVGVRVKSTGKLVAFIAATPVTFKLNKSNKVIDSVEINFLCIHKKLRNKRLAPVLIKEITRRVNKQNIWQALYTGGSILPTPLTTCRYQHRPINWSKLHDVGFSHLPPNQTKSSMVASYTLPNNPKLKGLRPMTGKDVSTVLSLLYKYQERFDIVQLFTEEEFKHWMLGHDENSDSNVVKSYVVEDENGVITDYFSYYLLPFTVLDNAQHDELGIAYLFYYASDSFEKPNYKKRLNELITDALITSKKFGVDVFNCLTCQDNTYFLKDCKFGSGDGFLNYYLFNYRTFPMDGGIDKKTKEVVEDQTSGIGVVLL

C. albicans [2] = assay: Determination of minimum fungicidal concentrations (MFC); format: cell-based; details: concentration where no cellular growth is observed on the plate after plating out MIC wells; for MFC: Candida albicans, read-out: C. alb MFC
Description: (iii) Determination of Minimum Fungicidal Concentrations (MFC) After the required time course for the MIC determination, the minimum fungicidal concentration can then be determined by plating out the entire contents of the well of the microtitre plates onto YPD or Sabourand plates. These plates are then incubated at 35° C. for 24-48 hrs. The MFC corresponds to the concentration of compound where no cellular growth is observed on the plate.

C. albicans [3] = assay: In vitro susceptibility testing of compounds in C. albicans (MIC); format: cell-based; details: concentration where no visible growth is observed, 35° C., read at 24 hr and 48 hr; for MIC: Candida albicans, read-out: C. alb MIC
Description: (ii) In vitro Susceptibility Testing of Compounds in C. albicans […] Innoculate strain C. albicans strain such as SC5314 into 20 mL of the appropriate medium and incubate at 35° C. with shaking (220 rpm) overnight 2: Count the C. albicans cells in a 1:10 dilution of the overnight culture using a haemocytometer. 3: Work out the dilution factor required to bring the cell number to 1×10^3 cells/100 μL (equivalent to 1×10^4 cells/mL) then add the required volume of the overnight culture to 25 mL media in a falcon tube. 4: Vortex the diluted cells and immediately pipette 100 μL of the cell suspension to each of the required rows of a 96 well plate using the multipipettor 5: Prepare each of the 100× stock solutions for the compounds to be tested in DMSO in the required concentration range in Eppendorf tubes. 6: The dilution series for each of the compounds may now be prepared in sequence: For each compound—start with highest dilution. Add 10 μL compound in DMSO to the 490 μL of appropriate media. Immediately vortex and add 100 μL to the appropriate row of cells on the 96-well plate. Repeat this process for the next and subsequent concentrations of this compound before starting on the dilution series for additional compounds. 7: When complete cover the 96-well plate with an acetate sheet and incubate at 35° C. Inspect visually and record results for both plates at 24 hr and 48 hr. The MIC corresponds to the concentration of compound where no visible growth is observed.

C. albicans GGPTase = C. albicans GGPTase (Candida albicans, UniProt Q8J224+Q9Y764); assay: Assay protocol for determining IC50 of fungal GGPTase inhibitors (3H-GGPP, FlashPlate); format: biochemical; details: 2 nM C. albicans GGPTase, 250 nM 3H-GGPP, 250 nM C. albicans Rho; read-out: CaGGTase
Sequence of C. albicans GGPTase (Q9Y764 entry or part of it): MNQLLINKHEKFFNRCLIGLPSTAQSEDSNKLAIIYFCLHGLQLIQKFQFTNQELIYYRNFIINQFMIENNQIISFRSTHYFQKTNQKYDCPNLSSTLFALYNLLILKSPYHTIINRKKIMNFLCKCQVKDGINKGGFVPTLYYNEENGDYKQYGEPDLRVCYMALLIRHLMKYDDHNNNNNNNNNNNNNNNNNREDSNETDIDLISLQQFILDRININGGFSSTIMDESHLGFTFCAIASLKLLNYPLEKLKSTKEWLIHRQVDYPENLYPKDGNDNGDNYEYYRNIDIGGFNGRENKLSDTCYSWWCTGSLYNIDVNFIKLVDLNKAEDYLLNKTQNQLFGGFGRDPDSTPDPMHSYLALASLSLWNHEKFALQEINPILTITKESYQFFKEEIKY
Sequence of C. albicans GGPTase (Q8J224 entry or part of it): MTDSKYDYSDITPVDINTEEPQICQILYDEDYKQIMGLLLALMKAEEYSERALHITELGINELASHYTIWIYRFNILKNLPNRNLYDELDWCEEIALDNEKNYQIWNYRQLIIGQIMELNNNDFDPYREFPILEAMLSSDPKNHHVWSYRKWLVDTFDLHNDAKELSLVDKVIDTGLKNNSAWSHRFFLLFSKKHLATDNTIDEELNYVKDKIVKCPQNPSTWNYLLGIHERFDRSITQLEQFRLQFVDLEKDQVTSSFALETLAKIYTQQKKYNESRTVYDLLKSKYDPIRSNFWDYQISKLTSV
Description: (i) Assay Protocol for Determining IC50
Plate test compounds (10 μL per well) at predetermined concentration in 50% DMSO. For background control (blank) and reaction control (negative), add 10 μL of 200 μM GGPP and 10 μL 50% DMSO, respectively. Prepare assay buffer: 50 mM Tris, pH7.5, 20 mM KCL, 5 mM MgCl2, 5 μM ZnCl2, 0.5 mM Zw(3-14), 2 mM DTT and 0.1 mg/mL BSA.
Add 20 μL of C. albicans GGPTase and ^3H-GGPP in assay buffer to test compound. Preincubate enzyme and ^3H-GGPP with test compound for 15 minutes at room temperature. Add 20 μL C. albicans Rho in assay buffer. Incubate for 30 minutes at room temperature. Final assay conditions are 2 nM C. albicans GGPTase, 250 nM ^3H-GGPP and 250 nM C. albicans Rho.
Add 100 μL 15 mM GGPP, 50 mM Tris, pH 7.0 and 2% BSA to quench reaction. Transfer reaction to Nickel chelate FlashPlate. Allow his-tagged C. albcians Rho to capture onto plate. Rinse plate 1× with 200 μL 20 mM Tris, pH 7.0. Read in TOPCOUNT.

CAK1 = CAK1 (Candida albicans, UniProt A0A1D8PH53); assay: CAK1 inhibition, time-resolved fluorescence (FRET) kinase assay with biotin-his-cdk2 substrate; format: biochemical; details: 10 nM his-CAK1, 20 μM ATP, 30 min room temperature
Sequence of CAK1 (A0A1D8PH53 entry or part of it): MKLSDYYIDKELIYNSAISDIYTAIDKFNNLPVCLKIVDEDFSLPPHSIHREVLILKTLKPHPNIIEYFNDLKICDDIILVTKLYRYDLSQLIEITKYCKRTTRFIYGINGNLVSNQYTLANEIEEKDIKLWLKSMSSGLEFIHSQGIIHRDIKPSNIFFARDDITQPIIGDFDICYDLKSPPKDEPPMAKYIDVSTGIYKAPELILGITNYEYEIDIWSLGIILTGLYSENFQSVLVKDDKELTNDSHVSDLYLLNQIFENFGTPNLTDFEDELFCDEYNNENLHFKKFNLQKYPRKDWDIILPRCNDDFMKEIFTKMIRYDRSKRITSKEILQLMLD
Description: The following protocol was used for measuring CAK1 inhibition by test compounds:
A compound plate was pre-made with 20 μg/ml compound dissolved in 100% DMSO in each well of a 384-well plate (polypropylene, Coming cat # 29445-136), except for two control columns, wherein each well contained 100% DMSO.
A substrate plate was prepared by adding a pre-determined volume of substrate solution (925 nM biotin-his-cdk2 in reaction buffer) into each well of a 96-well deep-well plate (Beckman cat. 267006). To the control wells of the plate, 1/20 vol. of positive control and blank solutions were added according to the plate map. Positive control solutions are Olomoucine (MTX-277859) at 0.25, 0.75, 2.25, 6.75 mM, respectively, in DMSO, and blank solution is 50 mM EDTA in reaction buffer (50 mM Tris-HCl (pH 7.5), 50 mM NaCl, 0.1 mg/mL BSA, 100 μM MgCl2).
The reaction plate (384-well polystyrene black, Packard Opti plate, Cat.# 6005256) was loaded with a volume of 2.0 μL of samples from the compound plate and 8.0 μL of substrate solution from the substrate plate. 10 μl of enzyme solution (10 nM his-CAK1, 20 μM ATP in reaction buffer) was added to start the reaction. The plate was covered with a lid and incubated at room temperature for 30 min.
10 μl of FRET solution (45 nM streptavidin-APC*, 30 nM Europium-Ab, 3 mM EDTA in reaction buffer) was added to each of the wells of the reaction plate to stop the reaction. The time-resolved fluorescence was measured on a Wallac Victor fluorometer (excitation 340 nm, emission 665 nm, delay time 100 μs, window time 100 μs).

| SMILES | MIC (C. albicans [3]) [µg/mL] | IC50 (C. albicans GGPTase) [nM] | IC50 (CAK1) [nM] | MFC (C. albicans [2]) [µg/mL] | other results |
| --- | --- | --- | --- | --- | --- |
| CN(C)C(=O)c1ccc2nc(NC(=O)[C@H]3CC[C@@H](CN)CC3)sc2c1 | – | – | – | – | inhibitor of fungal N-myristoyltransferase [1]: potent inhibitor |
| Cn1cncc1CN1CCN(C(=O)N(Cc2cccc(Cl)c2)Cc2cccc(Cl)c2)CC1C(=O)NC[C@H]1CO[C@](Cn2ccnc2)(c2ccc(Cl)cc2Cl)O1 (stereo partly shown) [Compound 1] | < 10 | < 100 | – | < 10 | – |
| C[C@H](NC(=O)C1CN(C(=O)N(Cc2cccc(Cl)c2)Cc2cccc(Cl)c2)CCN1Cc1cncn1C)[C@](O)(Cn1cncn1)c1ccc(F)cc1F (stereo partly shown) [Compound 2] | < 10 | < 100 | – | < 10 | – |
| Cn1cncc1CN(CC(=O)NC[C@@H]1CO[C@@](Cn2ccnc2)(c2ccc(Cl)cc2Cl)O1)C1CCN(C(=O)N(Cc2cccc(Cl)c2)Cc2cccc(Cl)c2)CC1 [Compound 4] | < 10 | < 100 | – | < 10 | – |
| Cn1cncc1CN(C[C@@H]1CO[C@@](Cn2ccnc2)(c2ccc(Cl)cc2Cl)O1)C1CCN(C(=O)N(Cc2cccc(Cl)c2)Cc2cccc(Cl)c2)CC1 [Compound 5] | < 10 | < 100 | – | < 10 | – |
| Cn1cncc1CN1CCN(C(=O)N(Cc2cccc(Cl)c2)Cc2cccc(Cl)c2)C[C@@H]1CNC1CO[C@@](Cn2cncn2)(c2ccc(Cl)cc2Cl)O1 (stereo partly shown) [Compound 8] | < 10 | < 100 | – | < 10 | – |
| Cn1cncc1CN1CCN(C(=O)N(Cc2cccc(Cl)c2)Cc2cccc(Cl)c2)C[C@@H]1CNC1CO[C@@](Cn2cncn2)(c2ccc(Cl)cc2Cl)O1 (stereo partly shown) [Compound 9] | – | – | – | – | C. alb MFC (C. albicans [2]): <10 µg/mL; C. alb MIC (C. albicans [3]): <10 µg/mL |
| Cn1cncc1CN1CCN(C(=O)N(Cc2cccc(Cl)c2)Cc2cccc(Cl)c2)C[C@@H]1C(=O)NC[C@@H]1CO[C@@](Cn2cncn2)(c2ccc(Cl)cc2Cl)O1 [Compound 10] | < 10 | < 100 | – | < 10 | – |
| Cn1cncc1CN1CCN(C(=O)N(Cc2cccc(Cl)c2)Cc2cccc(Cl)c2)C[C@@H]1C(=O)NC[C@H]1CO[C@](Cn2ccnc2)(c2ccc(Cl)cc2Cl)O1 [Compound 12] | – | – | – | – | C. alb MFC (C. albicans [2]): <10 µg/mL; C. alb MIC (C. albicans [3]): <10 µg/mL |
| Cn1cncc1CN1CCN(C(=O)N(Cc2cccc(Cl)c2)Cc2cccc(Cl)c2)C[C@@H]1C(=O)NC[C@@H]1CO[C@@](Cn2ccnc2)(c2ccc(Cl)cc2Cl)O1 [Compound 13] | < 10 | < 100 | – | < 10 | – |
| C[C@@H](c1nc([C@H]2CN(C(=O)N(Cc3cccc(Cl)c3)Cc3cccc(Cl)c3)CCN2Cc2cncn2C)cs1)[C@@](O)(c1ccc(F)cc1F)n1cncn1 [Compound 15] | < 10 | < 100 | – | < 10 | – |
| C[C@@H](c1nc(CN(Cc2cncn2C)[C@H]2CCN(C(=O)N(Cc3cccc(Cl)c3)Cc3cccc(Cl)c3)C2)cs1)[C@@](O)(c1ccc(F)cc1F)n1cncn1 [Compound 16] | < 10 | < 100 | – | < 10 | – |
| O=C(CSc1ccccn1)c1ccc(OCc2ccc([N+](=O)O)cc2)cc1 [Compound 102] | – | – | < 10000 | – | – |
| CCOC(=O)c1c(NC(=O)c2c(OC)cccc2OC)sc(C)c1C [Compound 103] | – | – | < 50000 | – | – |
| O=C1CCc2cc(C(=O)CSc3ccc(Cl)cc3Cl)ccc2N1 [Compound 105] | – | – | < 50000 | – | – |
| O=C(c1ccccc1OCC1COC(Cn2ccnc2)(c2ccc(Cl)cc2Cl)O1)N(Cc1ccccc1)Cc1ccccc1 (stereo not shown) [Compound 107] | – | – | < 10000 | – | – |

The next lines start with results.

| MIC (C. albicans [3]) [µg/mL] | IC50 (C. albicans GGPTase) [nM] | IC50 (CAK1) [nM] | SMILES | MFC (C. albicans [2]) [µg/mL] | other results |
| --- | --- | --- | --- | --- | --- |
| < 10 | < 100 | – | Cn1cncc1CN1CCN(C(=O)N(Cc2cccc(Cl)c2)Cc2cccc(Cl)c2)C[C@@H]1C(=O)NC[C@H]1CO[C@](Cn2ccnc2)(c2ccc(Cl)cc2Cl)O1 [Compound 11] | < 10 | – |
| < 10 | < 100 | – | Cn1cncc1CN1CCN(C(=O)N(Cc2cccc(Cl)c2)Cc2cccc(Cl)c2)C[C@H]1C(=O)NC[C@@H]1CO[C@@](Cn2ccnc2)(c2ccc(Cl)cc2Cl)O1 [Compound 14] | < 10 | – |
| – | – | < 50000 | Cc1onc(-c2c(Cl)cccc2Cl)c1C(=O)Nc1cccc(-c2ncon2)c1 [Compound 101] | – | – |
| – | – | > 50000 | CCOC(=O)c1c(NC(=O)c2c(OC)cccc2OC)sc2c1CCC(C)C2 (stereo not shown) [Compound 104] | – | – |
| – | – | < 50000 | CCOC(=O)C1=C(C)N(Cc2ccccc2)C(=O)NC1c1ccc(OC(F)(F)F)cc1 (stereo not shown) [Compound 106] | – | – |
| – | – | < 50000 | O=C(c1cc(C(O)(Cn2ccnc2)c2ccccc2)ccc1-c1ccccc1)N(Cc1ccccc1)Cc1ccccc1 (stereo not shown) [Compound 108] | – | – |
